One data set has as its system coronin 1 promoter. Put plainly: EC50 analysis for coronin 1 promoter driven GFP inhibition by flow cytometry in RBL cells. It counts as cell-based. The conditions noted are these: RBL, RBL cells, 48-65 h, flow cytometry. In a few lines: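 RBL cells carrying coronin 1 promoter–GFP, mixed with CMV promoter–RFP cells, exposed to compounds 48–65 h and analyzed by flow cytometry with live/dead staining. EC50 derived from GFP inhibition, with RFP and viability as nonspecific and toxicity counter-reads; cycloheximide and DMSO as controls, relative potency normalized to a reference compound.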

Data set [1] relates to early cytomegalovirus promoter. Put plainly: Screening assay control: CMV promoter driven RFP in RBL cells (microplate reader). Conditions: 5 μg/ml, 48 h, microplate reader, DMSO = 100, read-out: RFP values (%). It counts as cell-based. As for the experimental part:
As an unrelated promoter, the early cytomegaloviral promoter element was cloned into a promoterless Red Fluorescence Protein (RFP) expression plasmid. Rat Basophil Leukemia (RBL) cells were transfected with the plasmid, stable RFP expressing cells enriched, incubated with various compounds and were assessed for red fluorescence values. Analyzing the inhibition of an unrelated promoter (in this case, early cytomegalovirus promoter) that drove Red Fluorescence Protein (RFP) expression assessed non-specificity of the compound under analysis.
(§1) The plasmids were independently transfected into immune cells (Rat basophil Leukemia, RBL cells) to generate green and red fluorescent RBL cells that were subsequently enriched by means of flow cytometry. These cells were then mixed in equal ratio (1:1) and incubated in a 96 well plate at 100,000 cells/well in a volume of 200 μl of phenol red free RPMI supplemented with 8% fetal calf serum, L-glutamate and antibiotics (penicillin, streptomycin) and various compounds (3 and 5 μg/ml concentrations) from available chemical libraries. At defined time points (8 h, 24 h and 48 h), the GFP and RFP fluorescence was measured using a 96 well microplate reader (Synergy, BioTek Instruments). […] Selected compounds show different levels of modulation of coronin 1 promoter driven GFP and CMV promoter driven RFP fluorescence. GFP and RFP fluorescence were analyzed with a microplate reader upon incubation with the top coronin 1 promoter inhibiting compounds. Shown are percentage of GFP reduction (left column) and percentage of RFP reduction (right column) for the compounds at 5 μg/ml concentration at 48 h. Cycloheximide (CHX) serves as positive control whereas media and DMSO serve as negative controls. […] Cells were imaged using a fluorescence microscope to validate fluorescence inhibition (FIG. 3A) and as well assess morphology and viability (in addition to GFP down regulation confirmation). In addition, quantitative Polymerase Chain Reaction (qPCR) for coronin 1 mRNA transcripts reveal reduction with compound 11 (FIG. 3B). The primers used for the qPCR on RBL cells are listed below as follows;

The test system of the next data set is coronin 1 mRNA. As to the kind of experiment: Quantitative PCR of coronin 1 mRNA in RBL cells. It counts as cell-based, Rat. The conditions noted are these: 3.5 μg/ml, 7 days. As for the experimental part:
as §1, with “compounds.” for “compounds. Shown are percentage of GFP reduction (left column) and percentage of RFP reduction (right column) for the compounds at 5 μg/ml concentration at 48 h. Cycloheximide (CHX) serves as positive control whereas media and DMSO serve as negative controls.”, “The primers used for the qPCR on RBL cells are listed below as follows;” left out

The next data set relates to CMV promoter. As to the kind of experiment: EC50 analysis for CMV promoter driven RFP inhibition (non-specific activity) by flow cytometry in RBL cells. Format: cell-based, cytomegalovirus. Conditions: 48-65 h, read-out: EC50 RFP alteration. How it is done: RBL cells expressing GFP under coronin 1 promoter and optionally with RBL cells expressing RFP under CMV promoter were mixed in equal numbers and incubated with the compounds at indicated concentrations for 48-65 h and analyzed by flow cytometry for alteration in coronin 1 promoter (GFP fluorescence), CMV promoter (RFP fluorescence) values. In addition, the cells were labelled with live-dead marker for assessing cell viability status by flow cytometry. Cycloheximide (CHX) serves as positive control and DMSO serves as negative controls. Effective Concentration (EC50) values for coronin 1 promoter inhibition via GFP fluorescence analysis, non-specific promoter inhibition via CMV promoter driven-RFP fluorescence analysis and cell viability via live/dead staining as a measure for toxicity in flow cytometry for compounds (10-22 and 50a-65a) are shown in Table 6 and Table 7. Based on the EC50 analysis of the inhibition of coronin 1 promoter driven GFP fluorescence the (4S,7R)-configurated eutomers were identified (Structures FIG. 9A-C). This is exemplified for compounds containing two stereocenters by eutomers 11c and 13a. […] Subsequent EC50 evaluations (Table 7) were performed with compound 13a as standard for relative potency normalized to a value of 1.00 (relative potency calculated as [EC50 GFP inhibition 13a]/[EC50 GFP inhibition compound of interest]).
In general terms: A flow cytometer gives signals particle by particle.

In another data set the test system is RBL cells. As to the kind of experiment: In vitro toxicity, Alamar blue assay. Format: cell-based, Rat. How it is done:
In vitro cytotoxicity tests were performed using Alamar blue (Invitrogen, USA) following manufacturers protocol. In brief, RBL cells pretreated with coronin 1 expression inhibitor or vehicle controls were reseeded and cultured in a 96-well plate at a concentration of 1×10^4 cells/ml of culture media. Alamar blue was added to the wells and further incubated at 37° C. for 4 h. The absorbance was measured at 600 nm using a microplate reader (Synergy, BioTek Instruments). DMSO and cycloheximide served as the vehicle and positive control respectively (FIG. 5A).

The subject of data set [2] is human PBMCs (CD4 and CD8 T cells). Put plainly: Proinflammatory cytokine production in human PBMCs after CD3/CD28 stimulation, flow cytometry. Format: cell-based. The conditions noted are these: 10 μg/ml, 4.5 days, CD3 and CD28 antibodies. How it is done:
Heparinized or EDTA treated blood or buffy coat from healthy volunteers were enriched for monocytes using the standard Histopaque 1.077 gradient centrifugation methodology. Post enrichment, the monocyte fraction was washed extensively with plain RPMI and subsequently counted and seeded in 96 well plate at a density of 0.2 million cells/well in a volume of 200 μl RPMI-1640 (Sigma) containing 1× penicillin and streptomycin (Gibco), 2 mM L-glutamine (Gibco), 10% heat inactivated FCS (PAA) and heparin 50 units/ml along with the vehicle (DMSO) or coronin 1 inhibitor at indicated concentrations. Cells were incubated in a 37° C. humidified incubator with a 5% CO2 for five days with the expression inhibitor and vehicle replenished in between at 48 hours post seeding by replacing 50% of the media. Subsequently, the cells were assessed for coronin 1 down regulation by Western blotting (FIG. 8A) and in parallel stimulated with anti-CD3 (2 μg/ml) and anti-CD28 (10 μg/ml) antibodies overnight and treated with brefeldin A for a duration of 4 h and subjected to surface staining (for CD3, CD4, CD8 and CD19) along with live-dead marker and fixed with 4% formaldehyde, permeabilized with 0.1% saponin and subjected to intracellular staining for interleukin-2 (FIG. 8B,C).

Molecules are shown by their SMILES. A value given as a limit tells only on which side of the number the result lay.

As for `COC(=O)C1=C(C)NC2=C(C(=O)CC(c3ccccc3OC)C2)C1c1cccc(O)c1` (stereo not drawn) [Comp. 11, methyl-4-(3-hydroxyphenyl)-7-(2-methoxyphenyl)-2-methyl-5-oxo-1,4,5,6,7,8-hexahydro-3-quinolinecarboxylate], the EC50 was 1200 nM in the data set with coronin 1 promoter and more than 9000 nM with CMV promoter. For the same molecule, the activity at 5 µg/mL in data set [1] was determined as 111%. The “coronin 1 mRNA transcripts (qPCR)” value in the data set with coronin 1 mRNA is recorded as “reduction in coronin 1 transcripts”. In the data set with RBL cells, the “in vitro toxicity by Alamar blue assay” value is recorded as “minimal toxicity”. Further, the “production of interleukin-2 (IL-2) in CD4 and CD8 T cells post T cell receptor stimulation” value in data set [2] was “attenuates immune responses”.

Values taken from patent US20260102387A1, “IMMUNOSUPPRESSIVE COMPOUNDS” (UNIVERSITÄT BASEL, priority 2022, published 2026).
